This note sets out measurements from patent US20020132801A1, “Drospirenone for hormone replacement therapy” (Schering Aktiengesellschaft, priority 2001, published 2002).

Holding throughout (assay type): physicochemical
Data set [1] can be described thus: Solubility in water and aqueous buffers. The conditions noted are these: water and aqueous buffers at various pH values.
A short description of data set [2]: Chemical stability under acid and alkaline conditions.
A short description of data set [3]: In vitro dissolution from tablet, USP XXIII Paddle Method. The following applies: drospirenone in micronized form in a pharmaceutical composition; rapid dissolution defined as at least 70% over about 30 minutes from 3 mg tablet in 900 ml water at 37° C., 50 rpm. The method, then:
A micronized substance is such that a test batch (ca. 200 mg) of the particles, herein drospirenone particles, has a surface area of more than 10,000 cm^2/g, and has the following particle size distribution for drospirenone as determined under the microscope: not more than 2 particles in a given batch (ca. 200 mg) with a diameter of more than 30 μm, and preferably ≦20 particles with a diameter of ≧10 μm and ≦30 μm.

For the compound `C[C@]12CCC(=O)C=C1[C@@H]1C[C@@H]1[C@H]1[C@@H]3[C@@H]4C[C@@H]4[C@@]4(CCC(=O)O4)[C@@]3(C)CC[C@@H]12` [drospirenone, 6β,7β;15β;16β-dimethylene-3-oxo-17α-preg-4-ene-21,17-carbolactone], in data set [1], the solubility entry is “sparingly soluble”. Besides, in data set [2] (acid conditions), the “stability under acid conditions” value is “rearranged to an inactive isomer”. Also, in data set [2] (alkaline conditions), the “stability under alkaline conditions” value is on record as “hydrolysed”. Moreover, in data set [3], the “in vitro dissolution of active compound from composition” value is given as “rapid dissolution”.
